What is called DC50 is the concentration giving 50% degradation. The Dmax is the largest share of the target that was removed.

This is an account of results in patent US20230265116A1, “DEGRADATION OF (EGFR) BY CONJUGATION OF EGFR INHIBITORS WITH E3 LIGASE LIGAND AND METHODS OF USE” (BEIGENE, LTD., priority 2020, published 2023).

The subject of experiment [1] is EGFR Del19/T790M/C797S (BaF3-DTC cells). Nature of the experiment: EGFR degradation HTRF assay, BaF3-DTC cells. The experiment is classed as cell-based. As to conditions: 16h treatment; for DTC Dmax (%): maximum percentage of degradation; for DC50: read-out: DTC DC50. In outline: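 BaF3 (WT, Del19/T790M/C797S) and HCC827 cells exposed 16 h at 37 °C, 5% CO2 to compounds in 0.2% DMSO medium, 8 doses from 10 uM top, 5-fold steps. Lysates read by HTRF (665/620 nm); degradation % vs DMSO control, DC50 from four-parameter fit, Dmax as maximal degradation.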
(In general: Time-resolved FRET reads energy transfer from a long-lived donor to a nearby acceptor.)

The target of experiment [2] is T1, EGFR L858R/T790M/C797S (BaF3-LTC cells) (Homo sapiens, UniProt P00533, C797S/L858R/T790M).
T1 construct: expressed in transfected cells; host or cells: BaF3
T1 sequence (P00533 25-1210 T790M/C797S/L858R): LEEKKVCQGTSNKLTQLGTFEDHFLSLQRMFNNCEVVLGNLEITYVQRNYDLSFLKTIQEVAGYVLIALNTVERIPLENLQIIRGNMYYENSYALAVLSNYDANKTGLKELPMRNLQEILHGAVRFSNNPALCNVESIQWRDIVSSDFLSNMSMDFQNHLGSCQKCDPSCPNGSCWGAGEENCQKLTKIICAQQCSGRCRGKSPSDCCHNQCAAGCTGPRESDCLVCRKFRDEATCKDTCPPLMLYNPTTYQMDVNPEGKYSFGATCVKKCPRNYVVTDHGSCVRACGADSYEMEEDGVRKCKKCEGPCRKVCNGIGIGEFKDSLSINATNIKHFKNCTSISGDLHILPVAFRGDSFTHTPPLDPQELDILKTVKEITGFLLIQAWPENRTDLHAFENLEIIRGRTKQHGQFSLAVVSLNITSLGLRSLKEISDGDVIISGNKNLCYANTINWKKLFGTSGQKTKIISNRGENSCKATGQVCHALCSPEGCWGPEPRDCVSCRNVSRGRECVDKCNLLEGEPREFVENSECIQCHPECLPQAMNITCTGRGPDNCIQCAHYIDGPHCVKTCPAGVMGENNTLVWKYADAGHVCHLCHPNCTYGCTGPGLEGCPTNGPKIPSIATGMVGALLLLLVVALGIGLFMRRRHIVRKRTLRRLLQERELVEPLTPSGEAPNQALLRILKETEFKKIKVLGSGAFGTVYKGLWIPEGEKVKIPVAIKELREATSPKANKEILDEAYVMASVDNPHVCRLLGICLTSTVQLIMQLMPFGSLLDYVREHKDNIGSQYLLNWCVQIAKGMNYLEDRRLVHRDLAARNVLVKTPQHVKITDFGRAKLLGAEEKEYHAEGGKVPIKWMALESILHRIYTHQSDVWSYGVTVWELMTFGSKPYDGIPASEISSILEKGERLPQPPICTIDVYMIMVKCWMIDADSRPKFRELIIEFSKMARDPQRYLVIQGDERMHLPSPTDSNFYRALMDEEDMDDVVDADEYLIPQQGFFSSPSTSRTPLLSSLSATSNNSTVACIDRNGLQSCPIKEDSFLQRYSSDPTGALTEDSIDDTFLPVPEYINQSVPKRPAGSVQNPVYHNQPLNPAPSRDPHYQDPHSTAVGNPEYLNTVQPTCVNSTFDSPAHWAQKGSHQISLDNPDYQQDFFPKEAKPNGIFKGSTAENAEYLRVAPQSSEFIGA
Nature of the experiment: EGFR degradation HTRF assay, BaF3-LTC cells. The conditions noted are these: BaF3-LTC, 16h treatment; for Dmax: maximum percentage of degradation, read-out: LTC Dmax (%); for DC50: read-out: LTC DC50. In kind it is cell-based. In outline: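 EGFR remaining after a 16 h, 37 °C exposure (8 doses, 5-fold steps from 10 uM final, 0.2% DMSO) was quantified by HTRF antibodies in cell lysate. Percent inhibition relative to DMSO control was fitted by four-parameter logistic to give DC50; Dmax denotes maximal degradation.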

Each structure is given as a SMILES string.

Take `CCc1cc(Nc2ncc(Br)c(Nc3ccc4nccnc4c3P(C)(C)=O)n2)c(OC)cc1N1CCC(N2CCN(CC3CCN(c4cccc(C5CCC(=O)NC5=O)c4)CC3)CC2)CC1` (centres unmarked) [Example 264, 3-(3-(4-((4-(1-(4-((5-bromo-4-((5-(dimethylphosphoryl)quinoxalin-6-yl)amino)pyrimidin-2-yl)amino)-2-ethyl-5-methoxyphenyl)piperidin-4-yl)piperazin-1-yl)methyl)piperidin-1-yl)phenyl)piperidine-2,6-dione]: in experiment [1], the “DTC Dmax (%)” value was 74.58% and the DC50 amounted to 0.0171 µM. In experiment [2], the Dmax came out at 86.2% and the DC50 stood at 0.061 µM.
Turning to `COc1cc(N2CCC(N3CC4CC(C3)N4CCC3CCN(c4cc(F)c(C5CCC(=O)NC5=O)c(F)c4)CC3)CC2)c(C)cc1Nc1ncc(Br)c(Nc2ccc3nccnc3c2P(C)(C)=O)n1` (centres unmarked) [Example 266, 3-(4-(4-(2-(3-(1-(4-((5-bromo-4-((5-(dimethylphosphoryl)quinoxaline-6-yl)amino)pyrimidin-2-yl)amino)-5-methoxy-2-methylphenyl)piperidin-4-yl)-3,6-diazabicyclo[3.1.1]heptan-6-yl)ethyl)piperidin-1-yl)-2,6-difluorophenyl)piperidine-2,6-dione], in experiment [1], the “DTC Dmax (%)” value is given as 83.88% and the DC50 is 0.0503 µM. In experiment [2], the Dmax amounted to 73.6% and the 50% degradation concentration (DC50) is 0.0819 µM.
In the same order, the values of `COc1cc(N2CCC(N3C[C@H]4C[C@@H]3CN4CCC3CCN(c4cc(F)c(C5CCC(=O)NC5=O)c(F)c4)CC3)CC2)c(C)cc1Nc1ncc(Br)c(Nc2ccc3nccnc3c2P(C)(C)=O)n1` (stereo partly drawn) [Example 267, 3-(4-(4-(2-((1R,4R)-5-(1-(4-((5-bromo-4-((5-(dimethylphosphoryl)quinoxalin-6-yl)amino)pyrimidin-2-yl)amino)-5-methoxy-2-methylphenyl)piperidin-4-yl)-2,5-diazabicyclo[2.2.1]heptan-2-yl)ethyl)piperidin-1-yl)-2,6-difluorophenyl)piperidine-2,6-dione] are 93.96%, 0.0179 µM, 90.3% and 0.0477 µM.
On the same counts, the results for `COc1cc(N2CCC(N3C[C@@H]4C[C@H]3CN4CCC3CCN(c4cc(F)c(C5CCC(=O)NC5=O)c(F)c4)CC3)CC2)c(C)cc1Nc1ncc(Br)c(Nc2ccc3nccnc3c2P(C)(C)=O)n1` (stereo partly drawn) [Example 268, 3-(4-(4-(2-((1S,4S)-5-(1-(4-((5-bromo-4-((5-(dimethylphosphoryl)quinoxalin-6-yl)amino)pyrimidin-2-yl)amino)-5-methoxy-2-methylphenyl)piperidin-4-yl)-2,5-diazabicyclo[2.2.1]heptan-2-yl)ethyl)piperidin-1-yl)-2,6-difluorophenyl)piperidine-2,6-dione] are 93.75%, 0.022 µM, 90.5% and 0.0335 µM.
For the molecule `CCc1cc(Nc2ncc(Cl)c(Nc3ccc4nccnc4c3P(C)(C)=O)n2)c(OC)cc1N1CCC(N2CCN(CCC3CCN(c4cc(F)c(C5CCC(=O)NC5=O)c(F)c4)CC3)CC2)CC1` (centres unmarked) [Example 269, 3-(4-(4-(2-(4-(1-(4-((5-chloro-4-((5-(dimethylphosphoryl)quinoxalin-6-yl)amino)pyrimidin-2-yl)amino)-2-ethyl-5-methoxyphenyl)piperidin-4-yl)piperazin-1-yl)ethyl)piperidin-1-yl)-2,6-difluorophenyl)piperidine-2,6-dione], in experiment [1], the “DTC Dmax (%)” value amounted to 95.39% and the half-maximal degradation concentration (DC50) came out at 0.0215 µM. In addition, in experiment [2], the Dmax is 88.8% and the DC50 was 0.0437 µM.
Regarding `CCc1cc(Nc2ncc(Br)c(Nc3ccc4nccnc4c3P(C)(C)=O)n2)c(OC)cc1N1CCC(N2CCN(C(=O)CC3CCN(c4cc(F)c(C5CCC(=O)NC5=O)c(F)c4)CC3)CC2)CC1` (centres unmarked) [Example 274, 3-(4-(4-(2-(4-(1-(4-((5-bromo-4-((5-(dimethylphosphoryl)quinoxalin-6-yl)amino)pyrimidin-2-yl)amino)-2-ethyl-5-methoxyphenyl)piperidin-4-yl)piperazin-1-yl)-2-oxoethyl)piperidin-1-yl)-2,6-difluorophenyl)piperidine-2,6-dione], in experiment [1], the “DTC Dmax (%)” value was determined as 89.85% and the half-maximal degradation concentration (DC50) turned out to be 0.0159 µM. In experiment [2], the maximal degradation (Dmax) is 96% and the half-maximal degradation concentration (DC50) is 0.0243 µM.
On to `CCc1cc(Nc2ncc(Br)c(Nc3ccc4nccnc4c3P(C)(C)=O)n2)c(OC)cc1N1CCC(N2CCN(CCc3ccc(C4(C)CCC(=O)NC4=O)cc3)CC2)CC1` (centres unmarked) [Example 280, 3-(4-(2-(4-(1-(4-((5-bromo-4-((5-(dimethylphosphoryl)quinoxalin-6-yl)amino)pyrimidin-2-yl)amino)-2-ethyl-5-methoxyphenyl)piperidin-4-yl)piperazin-1-yl)ethyl)phenyl)-3-methylpiperidine-2,6-dione], for which, in experiment [1], the “DTC Dmax (%)” value is 68.21% and the 50% degradation concentration (DC50) was found to be 0.152 µM. In addition, in experiment [2], the Dmax came to 76% and the DC50 is 0.248 µM.
In the same order, the values of `CCc1cc(Nc2ncc(Br)c(Nc3ccc4nccnc4c3P(C)(C)=O)n2)c(OC)cc1N1CCC(N2CCN(C3CCN(c4ccc(C5CCC(=O)NC5=O)cc4)C3)CC2)CC1` (centres unmarked) [Example 281, 3-(4-(3-(4-(1-(4-((5-bromo-4-((5-(dimethylphosphoryl)quinoxalin-6-yl)amino)pyrimidin-2-yl)amino)-2-ethyl-5-methoxyphenyl)piperidin-4-yl)piperazin-1-yl)pyrrolidin-1-yl)phenyl)piperidine-2,6-dione] are 67.1%, 0.0433 µM, 74.6% and 0.0633 µM.
In the same order, the values of `CCc1cc(Nc2ncc(Br)c(Nc3ccc4nccnc4c3P(C)(C)=O)n2)c(OC)cc1N1CCC(N2CCN(CCCCc3cc(F)c(C4CCC(=O)NC4=O)c(F)c3)CC2)CC1` (centres unmarked) [Example 282, 3-(4-(4-(4-(1-(4-((5-bromo-4-((5-(dimethylphosphoryl)quinoxalin-6-yl)amino)pyrimidin-2-yl)amino)-2-ethyl-5-methoxyphenyl)piperidin-4-yl)piperazin-1-yl)butyl)-2,6-difluorophenyl)piperidine-2,6-dione] are 93.51%, 0.0152 µM, 85% and 0.0215 µM.
On the same counts, the results for `CCc1cc(Nc2ncc(Br)c(Nc3ccc4nccnc4c3P(C)(C)=O)n2)c(OC)cc1N1CCC(N2CCN(C[C@H]3C[C@H](c4ccc(NC5CCC(=O)NC5=O)cc4)C3)CC2)CC1` (some centres unmarked) [Example 284, 3-((4-((1r,3r)-3-((4-(1-(4-((5-bromo-4-((5-(dimethylphosphoryl)quinoxalin-6-yl)amino)pyrimidin-2-yl)amino)-2-ethyl-5-methoxyphenyl)piperidin-4-yl)piperazin-1-yl)methyl)cyclobutyl)phenyl)amino)piperidine-2,6-dione] are 77.49%, 0.0612 µM, 75.5% and 0.0814 µM.
With `CCc1cc(Nc2ncc(Br)c(Nc3ccc4nccnc4c3P(C)(C)=O)n2)c(OC)cc1N1CCC(N2CCN(CCc3ccc(C4CCC(=O)NC4=O)c(F)c3)C[C@@H]2COC)CC1` (stereo partly drawn) [Example 286, 3-(4-(2-((R)-4-(1-(4-((5-bromo-4-((5-(dimethylphosphoryl)quinoxalin-6-yl)amino)pyrimidin-2-yl)amino)-2-ethyl-5-methoxyphenyl)piperidin-4-yl)-3-(methoxymethyl)piperazin-1-yl)ethyl)-2-fluorophenyl)piperidine-2,6-dione], in experiment [1], the “DTC Dmax (%)” value is reported as 75.85% and the DC50 was found to be 0.0237 µM. Further, in experiment [2], the greatest degradation seen (Dmax) was determined as 81.5% and the DC50 came out at 0.0593 µM.
On the same counts, the results for `CCc1cc(Nc2ncc(Br)c(Nc3ccc4nccnc4c3P(C)(C)=O)n2)c(OC)cc1N1CCC(N2CCN(CCc3ccc(C4CCC(=O)NC4=O)c(F)c3)[C@@H](CO)C2)CC1` (stereo partly drawn) [Example 287, 3-(4-(2-((R)-4-(1-(4-((5-bromo-4-((5-(dimethylphosphoryl)quinoxalin-6-yl)amino)pyrimidin-2-yl)amino)-2-ethyl-5-methoxyphenyl)piperidin-4-yl)-2-(hydroxymethyl)piperazin-1-yl)ethyl)-2-fluorophenyl)piperidine-2,6-dione] are 88.55%, 0.0052 µM, 84.8% and 0.0229 µM.
On the same counts, the results for `CCc1cc(Nc2ncc(Br)c(Nc3ccc4nccnc4c3P(C)(C)=O)n2)c(OC)cc1N1CCC(N2CCN(CCc3ccc(C4CCC(=O)NC4=O)c(F)c3)C[C@H]2COC)CC1` (stereo partly drawn) [Example 288, 3-(4-(2-((S)-4-(1-(4-((5-bromo-4-((5-(dimethylphosphoryl)quinoxalin-6-yl)amino)pyrimidin-2-yl)amino)-2-ethyl-5-methoxyphenyl)piperidin-4-yl)-3-(methoxymethyl)piperazin-1-yl)ethyl)-2-fluorophenyl)piperidine-2,6-dione] are 69.76%, 0.0213 µM, 84.1% and 0.333 µM.
Consider `CCc1cc(Nc2ncc(Br)c(Nc3ccc4nccnc4c3P(C)(C)=O)n2)c(OC)cc1N1CCC(N2CCN(CCc3ccc(C4CCC(=O)NC4=O)c(F)c3)[C@H](CO)C2)CC1` (stereo partly drawn) [Example 291, 3-(4-(2-((S)-4-(1-(4-((5-bromo-4-((5-(dimethylphosphoryl)quinoxalin-6-yl)amino)pyrimidin-2-yl)amino)-2-ethyl-5-methoxyphenyl)piperidin-4-yl)-2-(hydroxymethyl)piperazin-1-yl)ethyl)-2-fluorophenyl)piperidine-2,6-dione], for which, in experiment [1], the “DTC Dmax (%)” value turned out to be 83.17% and the DC50 worked out at 0.0079 µM. Further, in experiment [2], the greatest degradation seen (Dmax) was 87.2% and the DC50 is 0.0236 µM.
